Source: US20230052893A1, “A SYNERGISTIC BACTERICIDE AND BACTERIOSTATIC ORGANIC SANITIZING/DISINFECTANT/CLEANING FORMULATION” (UNIVERSIDAD DE CONCEPCIÓN, priority 2020, published 2023)

Key:
[1] = test system: E. coli ATCC 25932, L. monocytogenes ATCC 19115; Staphylococcus aureus ATCC 6538P, Salmonella enterica ATCC 13076; experiment: MIC-MBC in planktonic cells, the four pathogens together; assay type: cell-based; details: buffer used alone; range over the four pathogens; 18-20 hrs exposure
Experimental: The efficacy of the formulation was evaluated through minimal inhibitory concentration (MIC) and minimal bactericide concentration (MBC) against pathogens E. coli ATCC 25932, L. monocytogenes ATCC 19115; Staphylococcus aureus ATCC 6538P, Salmonella enterica ATCC 13076. […] The range of disinfectant concentrations was 0.037-5.17% w/v to acetate buffer and 0.043-6.06% w/v to propionate buffer. These concentrations are obtained from a stock solution which is diluted with filtered water.

[2] = test system: Botrytis cinerea; experiment: Inhibition of conidia germination; assay type: cell-based; details: 24 hours
Experimental: (§1) In summary 100 μl of inoculum suspension was added into 96 wells in plates, using the following concentrations: 0.037-14.8% w/v acetate buffer and 0.043-17.31% w/v propionate buffer; 100 μl water (fungus) or culture medium (bacteria) and 10 μl of inoculum suspension at a final concentration of 1×10^5 UFC/ml. An incubation of 24 hours at ±25° C. was performed, assays was made by triplicate. The antimicrobial effect was evaluated as follows: B. cinerea, a germinated conidia counting was made; and P. syringae, a minimal inhibitory concentration (MIC) was firstly made through presence/absence of turbidity, and from the concentrations in absence of turbidity 100 μl was taken to be transferred to a culture medium without the antimicrobial formulation and an incubation of 24 hours at room temperature was carried out to assay the minimal bactericide concentration (MBC).

[3] = test system: L. monocytogenes ATCC 19115 biofilm; experiment: CDC biofilm reactor, biofilm on stainless steel coupons; assay type: cell-based, Listeria monocytogenes; details: 250 ppm, 30 minutes contact
Experimental: (§2) Tests on bacterial biofilms were also made to the pathogen strains, which were performed as follows: stainless steel coupons (type 316) were washed, installed on a support within a glass vessel and autoclaved at 121° C. by 20 minutes. To evaluate the disinfectant effect over a stablished biofilm to each separate bacteria, 3 ml of a concentration of 0.5 Mc Farland was inoculated within a vessel and then the same was incubated by 6, 12, 24 and 48 hours at 16° C. After each time of incubation supports containing coupons were removed and transferred to Falcon tubes of 50 ml containing the present synergistic disinfectant formulation at the following concentrations, DS1: 15% w/v (ratio acetate:propionate, 6.86:1) and DS2: 35% w/v (ratio acetate:propionate, 6.86:1). Peracetic acid was used (PAA) as control at concentrations of 250 ppm, the contact with the present synergistic disinfectant formulation or peracetic acid with supports containing biofilms was kept by 30 minutes. To perform a counting, an aliquot was taken, seeded into trypticase agar and incubated at 30° C. by 24 h, finally a counting of adhered cells was made. […]

[4] = test system: E. coli ATCC 25932 biofilm; experiment: as above; assay type: cell-based, Escherichia coli; details: 250 ppm, 30 minutes contact
Experimental: as §2

[5] = test system: Salmonella enterica ATCC 13076 biofilm; experiment: as above; assay type: cell-based; details: 250 ppm, 30 minutes contact
Experimental: (§3) Tests on bacterial biofilms were also made to the pathogen strains, which were performed as follows: stainless steel coupons (type 316) were washed, installed on a support within a glass vessel and autoclaved at 121° C. by 20 minutes. To evaluate the disinfectant effect over a stablished biofilm to each separate bacteria, 3 ml of a concentration of 0.5 Mc Farland was inoculated within a vessel and then the same was incubated by 6, 12, 24 and 48 hours at 16° C. After each time of incubation supports containing coupons were removed and transferred to Falcon tubes of 50 ml containing the present synergistic disinfectant formulation at the following concentrations, DS1: 15% w/v (ratio acetate:propionate, 6.86:1) and DS2: 35% w/v (ratio acetate:propionate, 6.86:1). Peracetic acid was used (PAA) as control at concentrations of 250 ppm, the contact with the present synergistic disinfectant formulation or peracetic acid with supports containing biofilms was kept by 30 minutes. To perform a counting, an aliquot was taken, seeded into trypticase agar and incubated at 30° C. by 24 h, finally a counting of adhered cells was made. FIGS. 1 to 4 showing bacteria concentrations obtained to different times after 30 minutes of treatment using the above mentioned disinfectant formulations and peracetic acid as control to the following pathogens: L. monocytogenes ATCC 19115 (FIG. 1); E. coli ATCC 25932 (FIG. 2), Salmonella enterica ATCC 13076.L. (FIG. 3); and Staphylococcus aureus ATCC 6538P (FIG. 4).

[6] = test system: Staphylococcus aureus ATCC 6538P biofilm; experiment: as above; assay type: cell-based; details: 250 ppm, 30 minutes contact
Experimental: as §3

[7] = test system: mesophyll aerobics and enterobacteria; experiment: Disinfectant effect on non-inoculated meats, the 3 types of meats together; details: 2.5% Sodium Acetate; different meats, during test days
Experimental: Assays to evaluate antimicrobial effect on the surface of beef, chicken meat and salmon meat was performed. […] The growth of bacteria Escherichia coli was allowed in a TSB culture medium by 24 h at 35° C.
Disinfecting effect on a total mesophyll aerobic and enterobacteria microorganism counting was evaluated to initial non inoculated (E. coli) meat. Also, a concentration of 10^1 UFC/g of E. coli was inoculated and then the disinfectant effect was evaluated on such pathogen microorganism counting.
Meat (beef, chicken and salmon) was purchased the same date in which the assay was arranged and was kept under storing conditions at 4° C. up to using the same. Prior to initiating assays pieces of 5 grams, pieces were randomly selected to each treatment, and a) pieces were independently inoculated with 0.2 ml of culture comprising the above mentioned bacteria by separate and 2 ml was applied to the treatments to be defined below or b) pieces were only chopped and 2 ml of treatment was applied:
Meat pieces (inoculated or non-inoculated) with its respective treatments was transferred to tubes of 50 mL under conditions of sterility and stored at 4° C. up to its final evaluation. Assays were made by triplicate.
Antimicrobial activity evaluation was performed to 0, 3, 8 and 12 post-treatment days. […] Colonies were counted at 24 and 48 hours, depending the medium to be used to the counting.

[8] = test system: Pseudomonas syringae; experiment: MIC and MBC against agronomical pest; assay type: cell-based; details: buffer alone; 24 hours
Experimental: as §1

[9] = test system: pathogen disease; experiment: Disease incidence in inoculated fruits, 21-days aged fruits (fruit not stated)
From the text: Fruits having similar, size, form and color and having no visual damage by fungi were selected. To perform assays a 1-2 mm deep wound was made on the selected fruit by a needle and 10^5 UFC/ml B. cinerea and Penicillium spp. (to different samples, independent test) were inoculated through the same wound under sterility conditions, fruits was not disinfected prior to the inoculation procedures. Assays was made by triplicate on 6 units submitted to visual inspection during the treatment, which were equidistantly located therebetween in Petri plates of 100×15 mm and exposed to a disinfectant treatment (Different proportions and concentrations) spraying on the fruit 0.2 ml of the different synergistic proportion of the formulation, finally an incubation at 4° C. was allowed.
Four acetate/propionate mixtures (proportions) were tested, 17.2:1, 6.86:1, 1.72:1 and 0.043:1; for each of them two or three concentrations were tested. Treatments: Treatment A/Treatment 1: 3.38% w/v mixture acetate/propionate buffers. Treatment B/Treatment 2: 11.25% w/v mixture acetate/propionate buffers. Treatment C: 25% w/v mixture acetate/propionate buffers. Treatment D/Negative Control: Fruits with wound immersed in water. […]
Assays were evaluated to days 0 (control), 7, 14 and 21, a counting of fruits showing pathogen signs was made to determined incidence. […]

## CCC(=O)O [Propionate, propionate buffer]
[1]
  Concentration needed by separate to eliminate the pathogens (MBC): 0.43-3.46 % w/v
[2]; Botrytis cinerea, Propionate 2.6 % w/v
  inhibition at 2.6 % strength: 5.6%
[2]; Botrytis cinerea, Propionate 6.06 % w/v
  inhibition at 6.06 % strength: 18.1%
[2]; Botrytis cinerea, Propionate 8.65 % w/v
  inhibition at 8.65 % strength: 21.2%

## CC(=O)OO [peracetic acid]
[3]; 24-hours aged biofilms
  Elimination of biofilm: fully eliminate
[3]; biofilm after 6 and 12 hours
  Reduction of biofilm: completely reduced
[4]; 24-hours aged biofilms
  Elimination of biofilm: fully eliminate
[4]; biofilm after 6 and 12 hours
  Reduction of biofilm: completely reduced
[5]; 24-hours aged biofilms
  Elimination of biofilm: fully eliminate
[5]; biofilm after 6 and 12 hours
  Reduction of biofilm: completely reduced
[6]; 24-hours aged biofilms
  Elimination of biofilm: fully eliminate
[6]; biofilm after 6 and 12 hours
  Reduction of biofilm: completely reduced

## CC(=O)[O-].[Na+] [sodium acetate, Sodium Acetate]
[7]
  Aerobic mesophilic and enterobacterial counts: close to the negative control

## acetate buffer
[1]
  Concentration needed by separate to eliminate the pathogens (MBC): 0.74-3.69 % w/v
[2]; Acetate 2.22 % w/v, adjusted mortality media
  Inhibition of germination (%): 0.3%
[2]; Acetate 5.17 % w/v
  Inhibition of germination (%): 7.4%
[2]; Acetate 7.4 % w/v
  Inhibition of germination (%): 8.1%
[8]
  MBC: 3.69 % w/v

## benzalkonium chloride
[9]
  Time for which pathogen disease / incidence is inhibited: 42 days
